# Assay results from PMC7999199, “Novel Cationic Meso-Arylporphyrins and Their Antiviral Activity against HSV-1” (Pharmaceuticals, 2021).
# Experiments:
# [1] = test system: HSV-1 replication in Vero cells; experiment: Influence of the compounds on HSV-1 virus yield during infection of Vero cells (early/late replication stages); assay type: cell-based, herpes simplex virus type 1; details: for stages of HSV-1 replication affected: Vero cells, MOI 0.1; for effect on HSV-1 replication: simultaneous addition with the virus
# Experimental: Porphyrin’s antiviral action was then determined in terms of their effect on the HSV-1 replication stages in Vero cells. A two-part experiment was conducted to evaluate the influence of the obtained compounds on the early or late stages of replication (Figure 6). First, the effect of porphyrins on the initial stages of reproduction was estimated. Thus, HSV-1 at MOI 0.1 was adsorbed on Vero cells in a medium containing the studied porphyrin; then the cell monolayers were washed from the nonadsorbed virus, and porphyrins of the same concentration were introduced into the plate (1) (Vero Cells + HSV-1 + Porphyrin, left arrow. Figure 6), or the cell monolayers were washed from the nonadsorbed virus, and the medium without the test compound was introduced into the cell monolayers microwell plate (2) (Porphyrin + HSV-1 + Porphyrin medium, right arrow. Figure 6).
# The influence of porphyrin antiviral activity on the HSV-1 postadsorption stages was simultaneously evaluated in this experiment. The studied compounds were introduced after HSV-1 adsorption on Vero cells and washing of nonadsorbed virus particles (3) (Vero Cells +HSV-1, left arrow. Figure 6) or, after virus adsorption and nonadsorbed virus particles washing, only the medium was introduced (control of virus reproduction) (4) (Vero Cells +HSV-1, right arrow. Figure 6). After the formation of a pronounced cytopathic effect of the virus in control cultures (48 h of cultivation), the virus infection activity of all the samples was determined by titration in a Vero cell culture (Figure 7).
# Four variants were used to test compound efficiency in controlling development of infection in Vero cells. The Vero cells were seeded in 24-well plate in 1 mL of DMEM-5% FCS. (1) The cell monolayers were treated simultaneously with HSV-1 (MOI 0.1) in DMEM-1% FCS (900 µL) and investigated compounds in DMEM-1% FCS (100 µL) for 2 h at 36.8 °C in 5% CO2 atmosphere; then the cell monolayers were washed from the nonadsorbed virus and treated with 900 µL of DMEM-1%FCS and the same concentrations of compounds (100 µL). (2) The cell monolayers were treated simultaneously with HSV-1 (MOI 0.1) DMEM-1% FCS (900 µL) and compounds DMEM-1%FCS (100 µL) for 2 h at 36.8 °C in 5% CO2 atmosphere, and then the cell monolayers were washed from the nonadsorbed virus, after which only DMEM-1% FCS (1 mL) was added. (3) The cell monolayers were treated with HSV-1 (MOI 0.1) DMEM-1% FCS (900 µL) and DMEM-1% FCS (100 µL) for 2 h at 36.8 °C in 5% CO2 atmosphere and washed from the nonadsorbed virus; then DMEM-1% FCS (900 µL) and the same compounds in DMEM-1% FCS (100 µL) were added. (4) Control: the cell monolayers were treated with HSV-1 (MOI 0.1) in DMEM-1% FCS (900 µL), and DMEM-1% FCS (100 µL) was added for 2 h at 36.8 °C in 5% CO2 atmosphere and washed from the nonadsorbed virus, and then DMEM-1% FCS (1 mL) was added. In all variants, the treated cells were then incubated at 36.8 °C in 5% CO2 atmosphere.
# After the development of a cytopathic effect in control cultures (HSV-1 + medium, 48 h), the virus content was determined in samples of the culture medium by applying ten-fold dilutions (100 µL) on a monolayers of Vero cells in wells of 96-well plates. After three days, virus titers were counted, and the percentage of inhibition regarding the titer of the virus in the control, which was taken as 100%, was determined. The results were presented as the average of three experiments of four replays.
# Figure 7 Inhibitory effect of porphyrins on the HSV-1 replication. The Vero cells were treated with compounds 3a (100 µM) (a), 3b (12 µM and 6 µM) (b) and TMePyP (50 µM, 25 µM and 12.5 µM) (c) simultaneously with HSV-1 (MI 0.1) or after HSV-1 (MI 0.1) adsorption. The results are presented as the percentage of the virus titer with porphyrin relative to its titer in the control (without porphyrin), which was taken as 100%. Each bar represents the mean ± deviation. […]
# [2] = test system: HSV-1 (strain RD); experiment: Virucidal effect on HSV-1: virus incubated 2 h with compound, residual titer by CPE in Vero cells; assay type: cell-based, herpes simplex virus type 1; details: for IC50: Human alphaherpesvirus 1, Vero, HSV-1
# Experimental: Next, the virucidal effect of the drugs on HSV-1 in PBS and Pluronic F-127 was studied, in accordance with CC50 (Figure 5). The virucidal activity tests were performed by incubating HSV-1 with different concentrations of 3a,b and TMePyP for 2 h at a temperature of 36.8 °C and 5% CO2. Untreated viral suspensions were used as a control. Then, samples were added to a Vero culture seeded in 96-well plates, and the residual virus content was evaluated by developing a cytopathic effect on the fourth day of cultivation.
# HSV-1 at tenfold dilutions DMEM-1% FCS (900 µL) was incubated with different concentration of the compounds (100 µL) at the final concentration ranging from 3 µM to 100 µM in DMEM-1% FCS or without of compound, each sample in volume 1 mL, for 2 h at 36.8 °C in 5% CO2 atmosphere. After treatment, the samples were applied to the Vero cell (the day before, cells were seeded at the rate of 15,000 cells/well in […] DMEM-5% FCS in 96-well plates) monolayers in 96-well plates (100 µL/well), and, after 4 days of cultivation at 36.8 °C in 5% CO2 atmosphere, titers were calculated based on the development of CPE, and the inhibitory activity of each compounds was calculated in relation to the control (HSV-1 without compounds). Data are reported as means of three independent assays, each run in triplicate.
# Figure 5 Virucidal activity of 3a (a), 3b (b), TMePyP (c) dissolved in PBS and Pluronic F-127 regarding HSV-1. The results are presented as the virus titer percentage, with the porphyrin regarding the virus titer in control, which was taken as 100%. Each point represents the mean ± deviation of three experiments with three replicates.
# Fig. 15S. Virucidal activity of 3a (A), 3b (B), TMePyP (C) compounds dissolved in PBS and Pluronic F127 regarding to HSV-1. HSV-1 at tenfold dilutions DMEM-1%FCS was incubated with different concentration of the compounds ranging from 3 µM/L to 100 µM/L in DMEM-1% FCS or without of compound , each sample in volume 1mL, for 2 hours at 36.8°C in 5% CO 2 atmosphere. After treatment the samples were applied to the Vero DMEM-5%FCS in 96 wells plates) monolayers in 96 wells plates (100 µL/well). and after 4 days of cultivation at 36.8 °C in 5% CO 2 atmosphere titers were calculated based on the development of CPE and the inhibi-tory activity of each compounds was calculated in relation to the control (HSV -1 without compounds). Data are reported as means of three independent assays, each run in tripli cate. The results were processed using the GraphPad Prism 5 program. […]
# [3] = Pluronic F-127 (F127) micellar formulation
SMILES,stages of HSV-1 replication affected [1],"effect on HSV-1 reproduction ([1]; compound only at the cell infection stage (3a + HSV-1 + media), 100 µM, MOI 0.1, 48 h)","effect on HSV-1 reproduction ([1]; compound with virus and after washing (3a + HSV-1 + 3a) or post-infection (HSV-1 + 3a), 100 µM, MOI 0.1, 48 h)","IC50 [2, 3] [µM]","concentration showing a virucidal effect ([2]; PBS and Pluronic F-127, only at the maximum concentration) [µM]","effect on HSV-1 reproduction ([1]; introduced at the stage of virus adsorption, 12 μM)",effect on HSV-1 replication ([1]; 25 μM),effect on HSV-1 replication ([1]; 50 μM),IC50 ([2]; dissolved in PBS) [µM]
O=C(CC[n+]1ccccc1)Oc1ccc(-c2c3nc(c(-c4ccc(OC(=O)CC[n+]5ccccc5)cc4)c4ccc([nH]4)c(-c4ccc(OC(=O)CC[n+]5ccccc5)cc4)c4nc(c(-c5ccc(OC(=O)CC[n+]6ccccc6)cc5)c5ccc2[nH]5)C=C4)C=C3)cc1 [3a],acts on both the initial and postadsorption stages of virus replication,did not significantly suppress the reproduction of the virus,suppressed the reproduction of the virus,99.8,100,,,,
"C[n+]1ccc(-c2c3nc(c(-c4cc[n+](C)cc4)c4ccc([nH]4)c(-c4cc[n+](C)cc4)c4nc(c(-c5cc[n+](C)cc5)c5ccc2[nH]5)C=C4)C=C3)cc1 [TMePyP, 5,10,15,20-tetrakis(1-methyl-4-pyridinio)porphyrin tetraiodide, reference compound]",affected both the initial and late stages of virus replication,,,13.3,,did not suppress the HSV-1 reproduction,completely suppressed its replication,completely suppressed its replication,2.3
